The structures appear in SMILES notation.

For this assay, the target named is recombinant full-length human hydroxyacid oxidase 1 (HAO1), the equivalent of hGOX (Homo sapiens (Human), UniProt Q9UJM8). Description: In-vitro human glycolate oxidase (hGOX) assay (Amplex red/HRP fluorescence). In kind it is biochemical. To be noted: 12.5 nM HAO1, 85 μM glycolate, 2.5% DMSO; read-out: IC50.
Sequence of recombinant full-length human hydroxyacid oxidase 1 (HAO1), the equivalent of hGOX (Q9UJM8 whole entry): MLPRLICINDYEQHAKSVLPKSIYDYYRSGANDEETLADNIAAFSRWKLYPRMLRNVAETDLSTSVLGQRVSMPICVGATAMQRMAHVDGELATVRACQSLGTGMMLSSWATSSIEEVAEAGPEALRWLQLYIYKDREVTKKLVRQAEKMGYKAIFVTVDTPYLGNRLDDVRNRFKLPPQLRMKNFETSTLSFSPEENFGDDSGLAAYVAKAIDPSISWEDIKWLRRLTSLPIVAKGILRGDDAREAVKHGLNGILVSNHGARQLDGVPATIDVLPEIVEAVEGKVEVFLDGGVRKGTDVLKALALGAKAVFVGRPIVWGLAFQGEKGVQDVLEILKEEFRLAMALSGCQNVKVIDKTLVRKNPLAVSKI
Procedure: Biological Activity Assay: In-Vitro Human Glycolate Oxidase (hGOX) Assay
The in-vitro glycolate oxidase assay was performed using recombinant full-length human hydroxyacid oxidase 1 (HAO1), the equivalent of hGOX. […] Purified HAO1 was dissolved in assay buffer consisting of 10 mM NaCl, 110 mM KCl, 2 mM MgCl2, 50 mM HEPES (pH 7.4) and 0.01% Triton™ X-100.
By IC50 is commonly meant the concentration that inhibits the measured activity by half. Consider `O=C(O)c1nn[nH]c1Sc1ccc(Br)cc1` [Example I-007, 5-((4-Bromophenyl)thio)-1H-1,2,3-triazole-4-carboxylic acid], for which the IC50 stood at 70 nM.

Turning to `Cc1ccc(Oc2[nH]nnc2C(=O)O)cc1C` [Example I-039, 5-(3,4-Dimethylphenoxy)-1H-1,2,3-triazole-4-carboxylic acid], the half-maximal inhibitory concentration (IC50) was 56 nM.

Take `COc1cc(OC)cc(-c2ccc(Oc3[nH]nnc3C(=O)O)cc2)c1` [Example I-301, 5-((3′,5′-Dimethoxy-[1,1′-biphenyl]-4-yl)oxy)-1H-1,2,3-triazole-4-carboxylic acid]: the IC50 came to 1080 nM.

`O=C(O)c1nn[nH]c1Oc1ccccc1` [Example I-057, 5-Phenoxy-1H-1,2,3-triazole-4-carboxylic acid]: the IC50 stood at 360 nM.

As to `O=C(O)c1nn[nH]c1Sc1cccc(F)c1` [Example I-015, 5-((3-Fluorophenyl)thio)-1H-1,2,3-triazole-4-carboxylic acid], the IC50 amounted to 130 nM.

`CCOC(=O)c1nn[nH]c1Sc1ccccc1Cl` [Example I-012, Ethyl 5-((2-chlorophenyl)thio)-1H-1,2,3-triazole-4-carboxylate]: the IC50 is 251000 nM.

For `O=C(O)c1[nH]nnc1Oc1ccc(F)c(F)c1` [Example I-307, 5-(3,4-Difluorophenoxy)-1H-1,2,3-triazole-4-carboxylic acid], the IC50 worked out at 88 nM.

As to `Cc1cc(Oc2[nH]nnc2C(=O)O)ccc1F` [Example I-306, 5-(4-Fluoro-3-methylphenoxy)-1H-1,2,3-triazole-4-carboxylic acid], the IC50 is 61 nM.

Consider `O=C(O)c1nn[nH]c1Oc1cccc(C2CC2)c1` [Example I-293, 5-(3-Cyclopropylphenoxy)-1H-1,2,3-triazole-4-carboxylic acid], for which the IC50 was 74 nM.

Consider `CCc1ccc(Oc2[nH]nnc2C(=O)O)cc1` [Example I-298, 5-(4-Ethylphenoxy)-1H-1,2,3-triazole-4-carboxylic acid], for which the IC50 stood at 34 nM.

Regarding `O=C(O)c1nn[nH]c1Oc1ccc(Cl)c(F)c1` [Example I-308, 5-(4-Chloro-3-fluorophenoxy)-1H-1,2,3-triazole-4-carboxylic acid], the IC50 was determined as 34 nM.

Take `O=C(O)c1nn[nH]c1Oc1ccc(F)c(Cl)c1` [Example I-309, 5-(3-Chloro-4-fluorophenoxy)-1H-1,2,3-triazole-4-carboxylic acid]: the IC50 came to 27 nM.

Consider `O=C(O)c1nn[nH]c1Oc1cccc(-c2ccc3c(c2)OCO3)c1` [Example I-305, 5-(3-(Benzo[d][1,3]dioxol-5-yl)phenoxy)-1H-1,2,3-triazole-4-carboxylic acid], for which the IC50 was 2 nM.

`Cc1ccc(Sc2[nH]nnc2C(=O)O)cc1` [Example I-003, 5-(p-Tolylthio)-1H-1,2,3-triazole-4-carboxylic acid]: the IC50 is 160 nM.

Regarding `CCOC(=O)c1nn[nH]c1Sc1ccc(Br)cc1` [Example I-008, Ethyl 5-((4-bromophenyl)thio)-1H-1,2,3-triazole-4-carboxylate], the IC50 is over 500000 nM.

As to `O=C(O)c1nn[nH]c1Oc1ccc(-c2ccc(OC(F)(F)F)c(F)c2)cc1` [Example I-310, 5-((3′-Fluoro-4′-(trifluoromethoxy)-[1,1′-biphenyl]-4-yl)oxy)-1H-1,2,3-triazole-4-carboxylic acid], the IC50 came to 5 nM.

With `Cc1ccc(Nc2[nH]nnc2C(=O)O)cc1` [Example I-292, 5-(p-Tolylamino)-1H-1,2,3-triazole-4-carboxylic acid], the IC50 amounted to 3760 nM.

For `CCOC(=O)c1nn[nH]c1Sc1ccc(OC)cc1` [Example I-005, Ethyl 5-((4-Methoxyphenyl)thio)-1H-1,2,3-triazole-4-carboxylate], the IC50 is over 500000 nM.

Take `CCOC(=O)c1nn[nH]c1Sc1ccccc1F` [Example I-014, Ethyl 5-((2-fluorophenyl)thio)-1H-1,2,3-triazole-4-carboxylate]: the IC50 was found to be 430000 nM.

On to `C=Cc1cccc(Oc2[nH]nnc2C(=O)O)c1` [Example I-284, 5-(3-Vinylphenoxy)-1H-1,2,3-triazole-4-carboxylic acid], for which the IC50 worked out at 89 nM.

On to `O=C(O)c1[nH]nnc1Sc1ccc(Cl)c(Cl)c1` [Example I-025, 5-((3,4-Dichlorophenyl)thio)-1H-1,2,3-triazole-4-carboxylic acid], for which the IC50 is 43 nM.

As to `COc1ccccc1Sc1[nH]nnc1C(=O)O` [Example I-006, 5-((2-Methoxyphenyl)thio)-1H-1,2,3-triazole-4-carboxylic acid], the IC50 was 2310 nM.

Take `COc1ccc(Oc2[nH]nnc2C(=O)O)cc1` [Example I-035, 5-(4-Methoxyphenoxy)-1H-1,2,3-triazole-4-carboxylic acid]: the half-maximal inhibitory concentration (IC50) is 260 nM.

Turning to `O=C(O)c1nn[nH]c1Oc1cccc(N2CCCC2)c1` [Example I-283, 5-(3-(Pyrrolidin-1-yl)phenoxy)-1H-1,2,3-triazole-4-carboxylic acid], the IC50 amounted to 172 nM.

`CC(C)c1ccc(Oc2[nH]nnc2C(=O)O)cc1` [Example I-274, 5-(4-Isopropylphenoxy)-1H-1,2,3-triazole-4-carboxylic acid]: the IC50 was found to be 112 nM.

In the case of `CC(C)c1cccc(Oc2[nH]nnc2C(=O)O)c1` [Example I-278, 5-(3-Isopropylphenoxy)-1H-1,2,3-triazole-4-carboxylic acid], the IC50 was found to be 230 nM.

On to `O=C(O)c1nn[nH]c1OCc1ccc(Br)cc1` [Example I-085, 5-((4-Bromobenzyl)oxy)-1H-1,2,3-triazole-4-carboxylic acid], for which the IC50 was over 10000 nM.

With `Cc1ccccc1Sc1[nH]nnc1C(=O)O` [Example I-010, 5-(o-Tolylthio)-1H-1,2,3-triazole-4-carboxylic acid], the IC50 is 360 nM.

For the compound `O=C(O)c1nn[nH]c1Sc1ccccc1F` [Example I-013, 5-((2-Fluorophenyl)thio)-1H-1,2,3-triazole-4-carboxylic acid], the concentration for half-maximal inhibition (IC50) is 200 nM.

Consider `CC(C)Cc1cccc(Oc2[nH]nnc2C(=O)O)c1` [Example I-296, 5-(3-Isobutylphenoxy)-1H-1,2,3-triazole-4-carboxylic acid], for which the IC50 worked out at 76 nM.

As for `COc1ccc(Sc2[nH]nnc2C(=O)O)cc1` [Example I-004, 5-((4-Methoxyphenyl)thio)-1H-1,2,3-triazole-4-carboxylic acid], the IC50 stood at 140 nM.

As to `O=C(O)c1nn[nH]c1Oc1ccc(-c2cc(Cl)cc(Cl)c2)cc1` [Example I-300, 5-((3′,5′-Dichloro-[1,1′-biphenyl]-4-yl)oxy)-1H-1,2,3-triazole-4-carboxylic acid], the IC50 turned out to be 33 nM.

Regarding `CCOC(=O)c1nn[nH]c1Nc1ccc(C)cc1` [Example I-291, ethyl 5-(p-tolylamino)-1H-1,2,3-triazole-4-carboxylate], the IC50 was over 500000 nM.

On to `O=C(O)c1nn[nH]c1Sc1nc2ccccc2s1` [Example I-032, 5-(Benzo[d]thiazol-2-ylthio)-1H-1,2,3-triazole-4-carboxylic acid], for which the IC50 stood at 4860 nM.

As for `C#Cc1ccc(Oc2[nH]nnc2C(=O)O)cc1` [Example I-297, 5-(4-Ethynylphenoxy)-1H-1,2,3-triazole-4-carboxylic acid], the IC50 came out at 4 nM.

In the case of `O=C(O)c1nn[nH]c1Sc1ccc(C(F)(F)F)cc1` [Example I-016, 5-((4-(Trifluoromethyl)phenyl)thio)-1H-1,2,3-triazole-4-carboxylic acid], the half-inhibitory concentration (IC50) came to 820 nM.

For `O=C(O)c1nn[nH]c1Oc1cccc(N2CCOCC2)c1` [Example I-282, 5-(3-Morpholinophenoxy)-1H-1,2,3-triazole-4-carboxylic acid], the IC50 turned out to be 539 nM.

Regarding `CCOC(=O)c1nn[nH]c1Nc1ccc(OC)cc1` [Example I-289, Ethyl 5-((4-methoxyphenyl)amino)-1H-1,2,3-triazole-4-carboxylate], the IC50 is over 500000 nM.

In the case of `COc1cc(OC)cc(-c2cccc(Oc3[nH]nnc3C(=O)O)c2)c1` [Example I-303, 5-((3′,5′-Dimethoxy-[1,1′-biphenyl]-3-yl)oxy)-1H-1,2,3-triazole-4-carboxylic acid], the half-inhibitory concentration (IC50) was determined as 169 nM.

For the compound `O=C(O)c1nn[nH]c1Oc1cccc(N2CCCCCC2)c1` [Example I-280, 5-(3-(Azepan-1-yl)phenoxy)-1H-1,2,3-triazole-4-carboxylic acid], the IC50 is 222 nM.

Regarding `O=C(O)c1nn[nH]c1Oc1cccc(-c2ccc(OC(F)(F)F)c(F)c2)c1` [Example I-311, 5-((3′-Fluoro-4′-(trifluoromethoxy)-[1,1′-biphenyl]-3-yl)oxy)-1H-1,2,3-triazole-4-carboxylic acid], the IC50 came to 27 nM.

For `Cc1ccc(Sc2[nH]nnc2C(=O)O)c(C)c1` [Example I-009, 5-((2,4-Dimethylphenyl)thio)-1H-1,2,3-triazole-4-carboxylic acid], the IC50 was 230 nM.

Turning to `O=C(O)c1nn[nH]c1Sc1ccccc1Cl` [Example I-011, 5-((2-Chlorophenyl)thio)-1H-1,2,3-triazole-4-carboxylic acid], the IC50 came to 270 nM.

Turning to `CCc1cccc(Oc2[nH]nnc2C(=O)O)c1` [Example I-295, 5-(3-Ethylphenoxy)-1H-1,2,3-triazole-4-carboxylic acid], the IC50 worked out at 79 nM.

As for `O=C(O)c1nn[nH]c1Oc1cccc(N2CCCCC2)c1` [Example I-281, 5-(3-(Piperidin-1-yl)phenoxy)-1H-1,2,3-triazole-4-carboxylic acid], the IC50 stood at 370 nM.

Turning to `COc1ccc(Nc2[nH]nnc2C(=O)O)cc1` [Example I-290, 5-((4-Methoxyphenyl)amino)-1H-1,2,3-triazole-4-carboxylic acid], the IC50 was found to be 6530 nM.
